According to the supplement of paper PMC11061612:

What was measured:
Test in all cases: Bliss excess, mean over the matrix (fraction); higher = more synergy
42-MG-BA (Glioblastoma) = tested on: 42-MG-BA (Glioblastoma)
Method in brief: (§1)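 Bliss excess equals the observed combination effect minus the expected value EA + EB − EA·EB, where EA and EB are the effects of each agent alone. Combination Emax is the second-highest inhibition within the matrix. Inhibition was scaled from CellTiter-Glo 2.0 luminescence, with 0 set by vehicle wells and 1 by blank wells, after 72 hours of two-drug dosing of cells plated in 1536-well plates.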

AGS (Gastric Carcinoma) = tested on: AGS (Gastric Carcinoma)
Method in brief: as §1

[1] = tested on: COLO-205 (Colorectal Carcinoma)
Method in brief: as §1

[2] = tested on: DEL (T-Cell Non-Hodgkin's Lymphoma)
Method in brief: as §1

[3] = tested on: DoTc2-4510 (Cervical Carcinoma)
Method in brief: as §1

[4] = tested on: EC-GI-10 (Esophageal Squamous Cell Carcinoma)
Method in brief: as §1

ES4 (Ewing's Sarcoma) = tested on: ES4 (Ewing's Sarcoma)
Method in brief: as §1

[5] = tested on: HCC-78 (Lung Adenocarcinoma)
Method in brief: as §1

[6] = tested on: HO-1-N-1 (Oral Cavity Carcinoma)
Method in brief: as §1

[7] = tested on: LU-135 (Small Cell Lung Carcinoma)
Method in brief: as §1

[8] = tested on: ME-1 (Acute Myeloid Leukemia)
Method in brief: as §1

[9] = tested on: NCI-H82 (Small Cell Lung Carcinoma)
Method in brief: as §1

[10] = tested on: Ramos-2G6-4C10 (Burkitt's Lymphoma)
Method in brief: as §1

[11] = tested on: SK-ES-1 (Ewing's Sarcoma)
Method in brief: as §1

[12] = tested on: SNU-5 (Gastric Carcinoma)
Method in brief: as §1

T98G (Glioblastoma) = tested on: T98G (Glioblastoma)
Method in brief: as §1

[13] = tested on: TCCSUP (Bladder Carcinoma)
Method in brief: as §1

[14] = tested on: TE-15 (Esophageal Squamous Cell Carcinoma)
Method in brief: as §1

[15] = tested on: TE-9 (Esophageal Squamous Cell Carcinoma)
Method in brief: as §1

[16] = tested on: UM-UC-3 (Bladder Carcinoma)
Method in brief: as §1

Row | SMILES | Bliss excess (42-MG-BA (Glioblastoma)) | Bliss excess (AGS (Gastric Carcinoma)) | Bliss excess [1] | Bliss excess [2] | Bliss excess [3] | Bliss excess [4] | Bliss excess (ES4 (Ewing's Sarcoma)) | Bliss excess [5] | Bliss excess [6] | Bliss excess [7] | Bliss excess [8] | Bliss excess [9] | Bliss excess [10] | Bliss excess [11] | Bliss excess [12] | Bliss excess (T98G (Glioblastoma)) | Bliss excess [13] | Bliss excess [14] | Bliss excess [15] | Bliss excess [16]
1 | NC1(C(=O)N[C@@H](CCO)c2ccc(Cl)cc2)CCN(c2ncnc3[nH]ccc23)CC1 [Capivasertib] + Cn1cnc2c(F)c(Nc3ccc(Br)cc3Cl)c(C(=O)NOCCO)cc21 [Selumetinib] (first compound max 10 µM, 7x7, partner max 10 µM) | 0.0697 | 0.0697 | -0.0598 | 0.054 | 0.0133 | 0.0744 | -0.0219 | -0.009 | 0.105 | 0.0413 | -0.0089 | -0.131 | -0.0166 | 0.0507 | 0.0345 | 0.0241 | -0.0385 | 0.0234 | -0.0011 | 0.0946
2 | COc1cccc(OCCCN)c1-c1cc(Nc2cnc(C#N)cn2)n[nH]1 [Prexasertib] + CCc1c2c(nc3ccc(O)cc13)-c1cc3c(c(=O)n1C2)COC(=O)[C@]3(O)CC [SN-38] (first compound max 1 µM, 7x7, partner max 0.3 µM) | 0.0122 | -0.0467 | 0.153 | -0.0068 | 0.0167 | 0.0252 | -0.0923 | -0.0337 | -0.0054 | -0.0623 | 0.0086 | 0.0347 | 0.0754 | -0.0081 | -0.0085 | 0.0121 | 0.0743 | -0.0275 | 0.0438 | 0.0017
3 | Cc1cc2ncnn2cc1Nc1ncc2c(n1)n(C1CCOCC1)c(=O)n2C [AZD7648] + C[C@@H]1COCCN1C2=NC(=NC(=C2)C3(CC3)[S@](=N)(=O)C)C4=C5C=CNC5=NC=C4 [AZD6738] (first compound max 10 µM, 7x7, partner max 10 µM) | -0.0581 | 0.0015 | 0.0195 | 0.0052 | 0.0178 | -0.0064 | 0.0062 | -0.0011 | 0.0001 | 0.0123 | -0.0321 | -0.0596 | 0.0129 | 0.0046 | 0.0337 | 0.0339 | 0.0311 | -0.0193 | 0.0252 | 0.0223
4 | Cc1c2c(nn1C)CSCc1cc(n(C)n1)CSc1cc(c3ccccc3c1)OCCCc1c(C(=O)O)n(C)c3c-2c(Cl)ccc13 [AZD5991] + C[C@@H](Nc1cc(F)cc(F)c1)c1cc(C(=O)N(C)C)cc2c(=O)cc(N3CCOCC3)oc12 [AZD8186] (first compound max 1 µM, 7x7, partner max 3 µM) | -0.0084 | 0.0073 | -0.0444 | 0.0058 | 0.0486 | 0.0109 | -0.0286 | -0.005 | 0.0943 | 0.0307 | -0.037 | -0.0121 | -0.0074 | 0.023 | 0.0155 | -0.001 | 0.0237 | -0.0254 | -0.0274 | 0.0098
5 | Cc1c2c(nn1C)CSCc1cc(n(C)n1)CSc1cc(c3ccccc3c1)OCCCc1c(C(=O)O)n(C)c3c-2c(Cl)ccc13 [AZD5991] + C1CN(CCC1(C(=O)N[C@@H](CCO)C2=CC=C(C=C2)Cl)N)C3=NC=NC4=C3C=CN4 [Capivasertib] (first compound max 1 µM, 7x7, partner max 3 µM) | -0.0442 | 0.0013 | -0.023 | -0.012 | 0.0544 | 0.0589 | 0.0162 | 0.0056 | 0.0001 | -0.0112 | 0.0415 | -0.008 | 0.0094 | 0.0217 | 0.0135 | -0.0178 | 0.0229 | -0.0196 | 0.0095 | -0.0231
6 | Cc1cc2ncnn2cc1Nc1ncc2c(n1)n(C1CCOCC1)c(=O)n2C [AZD7648] + CCN(CCO)CCCOc1ccc2c(Nc3cc(CC(=O)Nc4cccc(F)c4)[nH]n3)ncnc2c1 [AZD2811] (first compound max 10 µM, 7x7, partner max 1 µM) | 0.0312 | 0.0641 | -0.0303 | 0.0547 | -0.0115 | 0.0846 | 0.0076 | -0.014 | 0.0478 | -0.0223 | 0.0036 | 0.0981 | 0.188 | 0.0065 | 0.0543 | 0.0116 | 0.0258 | -0.0213 | -0.0002 | 0.001
7 | C[C@@H](c1ccc2nccn2c1)n1nnc2ncc(-c3cnn(C)c3)nc21 [Savolitinib] + CC1(C)CCC(CN2CCN(c3ccc(C(=O)NS(=O)(=O)c4ccc(NCC5CCOCC5)c([N+](=O)[O-])c4)c(Oc4cnc5[nH]ccc5c4)c3)CC2)=C(c2ccc(Cl)cc2)C1 [Venetoclax] (first compound max 1 µM, 7x7, partner max 1 µM) | -0.04 | -0.0729 | -0.0675 | -0.0385 | -0.0601 | -0.0547 | -0.0443 | -0.0514 | -0.0105 | -0.0561 | -0.0192 | -0.0467 | -0.0183 | -0.0545 | -0.0585 | -0.0064 | -0.0551 | -0.0227 | -0.0307 | -0.0574
8 | COc1cc2ncnc(Nc3ccc(F)c(Cl)c3)c2cc1OCCCN1CCOCC1 [Gefitinib] + CC(C)n1c(=O)n(C)c2cnc3cc(F)c(-c4ccc(OCCCN5CCCCC5)nc4)cc3c21 [AZD1390] (first compound max 10 µM, 7x7, partner max 0.3 µM) | -0.0891 | -0.0871 | -0.0578 | -0.0317 | -0.0601 | -0.0526 | -0.0177 | -0.0525 | -0.0506 | -0.0801 | -0.0238 | -0.0088 | -0.0626 | -0.0733 | -0.0887 | -0.0557 | -0.0593 | -0.0941 | -0.0522 | -0.0583
9 | CCc1c2c(nc3ccc(O)cc13)-c1cc3c(c(=O)n1C2)COC(=O)[C@]3(O)CC [SN-38] + CN(C)CCCOc1ccc(-c2ccc3ncc4c(c3c2)n(C2CCOCC2)c(=O)n4C)cn1 [AZD0156] (first compound max 0.3 µM, 7x7, partner max 1 µM) | 0.0561 | -0.0061 | 0.0073 | 0.117 | 0.0091 | 0.0134 | 0.0523 | -0.0066 | 0.0488 | -0.0201 | -0.008 | 0.0287 | 0.0361 | 0.0037 | -0.0237 | -0.03 | 0.0859 | 0.0146 | 0.0065 | 0.06
10 | NC1(C(=O)N[C@@H](CCO)c2ccc(Cl)cc2)CCN(c2ncnc3[nH]ccc23)CC1 [Capivasertib] + CC(=O)c1c(C)c2cnc(Nc3ccc(N4CCNCC4)cn3)nc2n(C2CCCC2)c1=O [Palbociclib] (first compound max 10 µM, 7x7, partner max 10 µM) | -0.0633 | 0.0794 | 0.0317 | 0.0706 | -0.0983 | -0.0056 | 0.074 | -0.0134 | 0.026 | -0.0357 | -0.11 | -0.0229 | -0.0512 | 0.0865 | -0.0253 | 0.0304 | 0.0372 | 0.0281 | -0.0271 | 0.0504
11 | COc1nnc2ccc(N3CCC(c4ccc(OCCN5CCN(C)C(=O)[C@H]5C)cc4)CC3)nn12 [AZD5153] + Cc1c2c(nn1C)CSCc1cc(n(C)n1)CSc1cc(c3ccccc3c1)OCCCc1c(C(=O)O)n(C)c3c-2c(Cl)ccc13 [AZD5991] (first compound max 1 µM, 7x7, partner max 1 µM) | 0.0576 | -0.0166 | -0.0303 | -0.0475 | -0.0358 | 0.0527 | -0.0665 | -0.0184 | 0.0068 | 0.0517 | -0.0162 | -0.0659 | 0.0407 | 0.0048 | -0.0069 | 0.0021 | -0.0234 | -0.0124 | -0.007 | 0.0031
12 | Cc1cc2ncnn2cc1Nc1ncc2c(n1)n(C1CCOCC1)c(=O)n2C [AZD7648] + C=CCn1c(=O)c2cnc(Nc3ccc(N4CCN(C)CC4)cc3)nc2n1-c1cccc(C(C)(C)O)n1 [AZD1775] (first compound max 10 µM, partner max 1 µM) | -0.052 | -0.0152 | -0.026 | 0.023 | -0.0004 | -0.0049 | 0.0337 | -0.0417 | 0.0444 | -0.0169 | 0.0321 | -0.0429 | 0.0005 | 0.0322 | 0.0073 | 0.0062 | -0.0109 | 0.0223 | 0.0148 | 0.0279
13 | Cc1c2c(nn1C)CSCc1cc(n(C)n1)CSc1cc(c3ccccc3c1)OCCCc1c(C(=O)O)n(C)c3c-2c(Cl)ccc13 [AZD5991] + CC1(C)CCC(CN2CCN(c3ccc(C(=O)NS(=O)(=O)c4ccc(NCC5CCOCC5)c([N+](=O)[O-])c4)c(Oc4cnc5[nH]ccc5c4)c3)CC2)=C(c2ccc(Cl)cc2)C1 [Venetoclax] (first compound max 1 µM, 7x7, partner max 1 µM) | -0.025 | 0.0132 | -0.0335 | 0.0081 | 0.0024 | -0.0024 | -0.0286 | -0.0245 | 0.0055 | 0.0178 | 0.0654 | -0.036 | 0.0339 | 0.167 | -0.0127 | 0.0004 | -0.0662 | -0.05 | 0.0041 | -0.0062
